Starred links: 1 amine or outer side, 2 acyl side, 3 side chain; linkers in the order of their positions; H or OH if unused. Non-standard residues stand in square brackets, D forms with d. Residues, ends and D or L forms follow the SMILES beside them. ξ: configuration not given here. ξNMeBmt = C/C=C/C[C@@H](C)[C@@H](O)C(NC)C(=O)O; X1 = CN(C(SCCNC(=N)N)C(=O)[*:2])[*:1]; NMeL = CN[C@@H](CC(C)C)C(=O)O; dNMeL = CN[C@H](CC(C)C)C(=O)O; NMeV = CN[C@H](C(=O)O)C(C)C; ξNMeL = CNC(CC(C)C)C(=O)O; dAbu = CC[C@@H](N)C(=O)O
Test system: lashes and hair around the eyes of patients
Test: In vivo treatment: appearance of lashes and hair around the eyes of patients treated in only one eye
Set-up: species or system human
Settings: glaucoma patients, one drop daily to one eye
Protocol: A study is initiated to systematically evaluate the appearance of lashes and hair around the eyes of patients who are administering 3-[(2-Guanidyl)-ethylthio]-cyclosporin A (the cyclosporine A derivative of Example A, above) in only one eye. The study involves 10 subjects, 5 male, 5 female, average age 70 years, (ranging from 50-94 years). All patients have glaucoma. Each subject is treated daily by the topical application of one drop of the composition of Example 3, below, to provide 3-[(2-Guanidyl)-ethylthio]-cyclosporin A at a dosage of 1.5 µg/ml/eye/day, to the region of one eye by instilling the drop onto the surface of the eye. The region of the fellow control eye is not treated with 3-[(2-Guanidyl)-ethylthio]-cyclosporin A and serves as a control. The mean duration of exposure to 3-[(2-Guanidyl)-ethylthio]-cyclosporin A prior to assessing the parameter of lash growth between the control and study eye is 129 days (range 90-254 days). Observations are made under high magnification at the slit lamp biomicroscope. Documentation of differences between the control and treatment areas is accomplished using a camera specially adapted for use with the slit lamp biomicroscope.

[1] = 1.5 µg/ml/eye/day, mean exposure 129 days, vs untreated fellow eye, slit lamp biomicroscope

**Q.** `C/C=C/C[C@@H](C)[C@@H](O)C1C(=O)N[C@H](CC)C(=O)N(C)C(SCCNC(=N)N)C(=O)N(C)[C@@H](CC(C)C)C(=O)N[C@H](C(C)C)C(=O)N(C)C(CC(C)C)C(=O)N[C@H](C)C(=O)N[C@@H](C)C(=O)N(C)[C@H](CC(C)C)C(=O)N(C)[C@H](CC(C)C)C(=O)N(C)[C@@H](C(C)C)C(=O)N1C` (stereo partly shown) [3-[(2-Guanidyl)-ethylthio]-cyclosporin A] (cyclo(A[dNMeL][dNMeL][NMeV][ξNMeBmt][dAbu][X1][NMeL][dV][ξNMeL][dA])) was tested. Which “Increased growth of vellus hair on lids” value (1.5 µg/ml/eye/day, mean exposure 129 days, vs untreated fellow eye, areas below and lateral to the lower lid) did it give?
**A.** The value was “vellus hairs are increased in number, appear more robust and are much longer and thicker in treated than in control eyes”.

**Q.** And the Length of lashes [1]?
**A.** The Length of lashes was “Increased length of eyelashes is regularly observed”.

**Q.** And the Number of lashes [1]?
**A.** Its Number of lashes is “Increased numbers of lashes are observed in the treated eye of each patient”.

**Q.** And the “Perpendicular angulation of hairs” value (lash-like hairs above the lash line and in the medial and lateral canthal areas)?
**A.** Its value is “the hairs are much longer, thicker and heavier. They also leave the surface of the skin at a more acute angle”.

From patent US20100305047A1, “CYCLOSPORIN DERIVATIVES FOR ENHANCING THE GROWTH OF HAIR” (ALLERGAN, INC., priority 2009, published 2010)
